pIC50: −log10 of the molar value. Where two headings read alike, the source gives them in different places.
Key:
H460 cells = experiment: In vitro proliferation assay, H460; type: cell-based; conditions: Homo sapiens, NCI-H460; 2 hrs exposure, wash, additional 70hrs, AlamarBlue; read-out: IC 50 in proliferation assay in H460 cells
Description: In vitro proliferation data on the H460 […] human tumor cell line is reported above in the compound table. IC50 values are reported in micromolar and result from exposure of compound at various concentrations for 2 hrs followed by a wash step and addition of fresh media followed by growth and cell viability staining and comparison to a media only treated control.
Specifically, exponentially growing cells were seeded at a density of 4 x 10^3 cells per well in a 96 well plate and incubated at 37°C in 5% CO2, 95% air and 100% relative humidity for 24 hours prior to addition of test compounds. Compounds were solubilized in 100% DMSO at 200 times the desired final test concentration. At the time of drug addition, compounds were further diluted to 4 times the desired final concentration with complete medium. Aliquots of 50 µl of compound at specified concentrations were added to microtiter wells already containing 150 µl of medium, resulting in the final drug concentration reported. After drug addition, the plates were incubated for an additional 2 hours at 37°C, 5% CO2, 95% air, and 100% relative humidity, then the drug was washed off and fresh medium was added and the plates were incubated for addition 70hrs at 37 °C, 5% CO2, 95% air and 100% relative humidity. At the end of this incubation, the viable cells were quantified using the AlamarBlue assay. The drug concentration resulting in growth inhibition of 50% (IC50) was calculated using Prism software (Irvine, CA), and the results were listed in the table.

SNU-387 = experiment: In vitro human tumor cell line cytotoxicity assay; type: cell-based; conditions: for pIC50: Homo sapiens
HCCC9810 = experiment: In vitro human tumor cell line cytotoxicity assay; type: cell-based; conditions: for pIC50: Homo sapiens
[1] = Acute toxicity study in monkeys, body weight; type: in vivo, Cynomolgus monkeys; parameters: unit not given here; conditions: 2 mg/kg IV infusion
Description: (§1) TH 3423 and TH 3424 were tested in no naive monkeys (1 male and one female for each compound at 2 mg/kg) with 30-min intravenous infusion, TK sampling: on Day 1 and Day 15: 0.25, 0.5, 0.75, 1 and 2 hr post infusion initiation. Serum chemistry and hematology: pre-dose (Day 1), day 5, day 8 (pre-dose), day 15 (pre-dose), day 22 and day 28. Clinical observation: Daily during the study, total 35 days. Food consumption: Daily during the study, total 35 days. Bodyweight measurement: Twice weekly for five weeks.

PLCPRF5 = experiment: In vitro human tumor cell line cytotoxicity assay; type: cell-based; conditions: for pIC50: Homo sapiens
Vcap = experiment: In vitro human tumor cell line cytotoxicity assay; type: cell-based; conditions: for pIC50: Homo sapiens, VCaP
HepG2 = experiment: In vitro human tumor cell line cytotoxicity assay; type: cell-based; conditions: for pIC50: Homo sapiens
C3A = experiment: In vitro human tumor cell line cytotoxicity assay; type: cell-based; conditions: for pIC50: Homo sapiens
LIXC012 = experiment: In vitro human tumor cell line cytotoxicity assay; type: cell-based; conditions: for pIC50: Homo sapiens
[2] = Pharmacokinetics (TK) after 30-min IV infusion in monkeys; type: in vivo, Cynomolgus monkeys; conditions: 2 mg/kg 30-min IV infusion; for MRT inf / clearance / half-life / Vd / concentration at 0.25 hr / concentration at 0.5 hr / concentration at 0.75 hr / concentration at 1 hr / concentration at 2 hr: cynomolgus monkey, plasma; for half-life: read-out: Terminal t1/2 (converted); for Vd: read-out: Vss
Description: as §1

Recombinant human AKR1C3 = Recombinant human AKR1C3 (Homo sapiens, UniProt P42330); experiment: Activation by the aldoketo reductase AKR1C3; type: biochemical; conditions: 5 µM, 2 mM NADPH, 37 °C, up to 120 min; FIG. 2
Chain of Recombinant human AKR1C3 (P42330 whole entry): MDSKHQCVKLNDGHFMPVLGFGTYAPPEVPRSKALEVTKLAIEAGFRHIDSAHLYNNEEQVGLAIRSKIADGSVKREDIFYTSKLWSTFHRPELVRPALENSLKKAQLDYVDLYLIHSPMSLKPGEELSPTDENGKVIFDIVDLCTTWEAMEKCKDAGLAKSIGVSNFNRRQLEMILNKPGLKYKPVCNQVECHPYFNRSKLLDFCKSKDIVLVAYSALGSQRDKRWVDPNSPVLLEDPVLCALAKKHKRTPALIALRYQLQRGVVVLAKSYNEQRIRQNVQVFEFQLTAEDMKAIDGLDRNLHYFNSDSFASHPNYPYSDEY
Description: Recombinant human AKR1C3 was diluted to 25 µg/mL in phosphate buffered saline (PBS), pH 7.4 (37 °C), containing 2 mM NADPH. TH2870 or progesterone (positive control) in 30% methanol/70% water was added to the reaction mixture at a final concentration of 5 µM and incubated at 37 °C for 120 minutes. At various times up to 120 min, 50 µL of the reaction mixture was taken and 200 µL acetonitrile containing propranolol as internal standard was added, vortex-mixed and centrifuged for 10 min. The resulting supernatant (5 µL) was injected into a LC/MS/MS for quantitation of % remaining TH 2870 and progesterone. The compounds were tested in duplicates.

[3] = both sexes, mean, read-out: Plasma concentration, Mean
[4] = female, read-out: Plasma concentration
[5] = male, read-out: Plasma concentration

## C[C@@H](OP(=O)(N1CC1)N1CC1)c1ccc([N+](=O)[O-])c(Oc2cccc(C(=O)N(C)C)c2)c1 (single isomer, unassigned) [TH3423]
H460 cells
  pIC50: 8.30
SNU-387
  Max Inhibition%: 99.8%
  Min Inhibition%: 1.3%
SNU-387; read-out: AbsIC50
  pIC50: 7.40
SNU-387; read-out: RelIC50
  pIC50: 7.33
HCCC9810
  Max Inhibition%: 93.7%
  Min Inhibition%: 0.0%
HCCC9810; read-out: AbsIC50
  pIC50: 7.73
HCCC9810; read-out: RelIC50
  pIC50: 7.77
[1]; Mean, Day 1
  body weight: 3.50
[1]; Mean, Day 4
  body weight: 3.39
[1]; Mean, Day 8
  body weight: 3.32
[1]; Mean, Day 11
  body weight: 2.96
[1]; female, Day 1
  body weight: 3.65
[1]; female, Day 4
  body weight: 3.55
[1]; female, Day 8
  body weight: 3.41
[1]; female, Day 11
  body weight: 2.96
[1]; male, Day 1
  body weight: 3.35
[1]; male, Day 4
  body weight: 3.23
[1]; male, Day 8
  body weight: 3.23
[1]; male, Day 11
  body weight: 2.95
PLCPRF5
  Max Inhibition%: 77.7%
  Min Inhibition%: -4.9%
PLCPRF5; PLC-PRF-5, read-out: AbsIC50
  pIC50: 6.68
PLCPRF5; PLC-PRF-5, read-out: RelIC50
  pIC50: 6.81
Vcap; read-out: AbsIC50
  pIC50: 7.67
Vcap; read-out: RelIC50
  pIC50: 7.58
Vcap; Vcap
  Max Inhibition%: 101.0%
  Min Inhibition%: 1.1%
HepG2
  Max Inhibition%: 99.5%
  Min Inhibition%: -7.2%
HepG2; read-out: AbsIC50
  pIC50: 7.73
HepG2; read-out: RelIC50
  pIC50: 7.88
C3A
  Max Inhibition%: 98.5%
  Min Inhibition%: 5.4%
C3A; read-out: AbsIC50
  pIC50: 7.93
C3A; read-out: RelIC50
  pIC50: 8.02
LIXC012
  Max Inhibition%: 84.8%
  Min Inhibition%: -1.1%
LIXC012; read-out: AbsIC50
  pIC50: 7.77
LIXC012; read-out: RelIC50
  pIC50: 8.09
[2]; Mean
  AUCINF: 770 hr^∗ng/mL
  AUClast: 766 hr^∗ng/mL
[2]; both sexes, Mean
  MRT inf: 12.2 min
  clearance: 43.3 mL/min/kg
  half-life: 7.74 min
  Vd: 0.527 L/kg
[2]; [3]
  concentration at 0.25 hr: 1210 ng/mL
  concentration at 0.5 hr: 1400 ng/mL
  concentration at 0.75 hr: 336 ng/mL
  concentration at 1 hr: 70 ng/mL
[2]; both sexes, mean, 2 hr, read-out: Plasma concentration, Mean
  concentration at 2 hr: 1.03 ng/mL
[2]; [4]
  concentration at 0.25 hr: 1320 ng/mL
  concentration at 0.5 hr: 1370 ng/mL
  concentration at 0.75 hr: 313 ng/mL
  concentration at 1 hr: 55 ng/mL
[2]; female
  MRT inf: 10.8 min
  clearance: 43.5 mL/min/kg
  half-life: 6.48 min
  Vd: 0.469 L/kg
  AUCINF: 766 hr^∗ng/mL
  AUClast: 758 hr^∗ng/mL
[2]; [5]
  concentration at 0.25 hr: 1100 ng/mL
  concentration at 0.5 hr: 1420 ng/mL
  concentration at 0.75 hr: 359 ng/mL
  concentration at 1 hr: 85 ng/mL
[2]; male, 2 hr, read-out: Plasma concentration
  concentration at 2 hr: 1.03 ng/mL
[2]; male
  MRT inf: 13.6 min
  clearance: 43.2 mL/min/kg
  half-life: 9 min
  Vd: 0.584 L/kg
  AUCINF: 774 hr^∗ng/mL
  AUClast: 773 hr^∗ng/mL
[2]; female, 2 hr
  Plasma concentration: BQL

## CC(=O)[C@H]1CC[C@H]2[C@@H]3CCC4=CC(=O)CC[C@]4(C)[C@H]3CC[C@]12C [Progesterone, reference compound]
Recombinant human AKR1C3
  disappearance of compound (% remaining) in the presence of AKR1C3: reduced slowly
